The text below walks through data of patent US9981963B2, “3-(1H-pyrazol-4-yl)-1H-pyrrolo[2,3-c]pyridine derivatives as NIK inhibitors” (Janssen Pharmaceutica NV, priority 2013, dated 2018).

Test [1] has as its target T1, Recombinant Human NF-kappaB-inducing Kinase (NIK/MAP3K14) (Homo sapiens (Human), UniProt Q99558). The experiment in a line: Biological Assay A: inhibition of recombinant human NIK/MAP3K14 activity (MSD, MBP substrate). Conditions: 25 μM ATP, 10 nM NIK/MAP3K14, 1 h at 25° C.; averaged over all measurements on all batches; read-out: Biochemical (MSD MBP) IC50. On the procedure:
Inhibition of Recombinant Human NF-kappaB-inducing Kinase (NIK/MAP3K14) Activity
Assay buffer was 50 mM Tris pH 7.5 containing 1 mM EGTA (ethylene glycol tetraacetic acid), 1 mM DTT (dithiothreitol), 0.1 mM Na3VO4, 5 mM MgCl2, 0.01% Tween® 20. Assays were carried out in 384 well Mesoscale high binding plates which had been coated with myelin basic protein (MBP) and blocked with bovine serum albumin to prevent non-specific protein binding. All compounds tested were dissolved in dimethyl sulfoxide (DMSO) and further dilutions were made in assay buffer. Final DMSO concentration was 1% (v/v) in assays. Incubations consisted of compound (1% DMSO in control and blank wells), 25 μM Adenosine-5′-triphosphate (ATP), and 10 nM NIK/MAP3K14 substituting enzyme with buffer in the blank wells. Incubations were carried out for 1 h at 25° C. and were followed by washing and sequential incubation with rabbit anti-phospho-MBP and anti-rabbit Ig Sulfotag antibody before reading bound Sulfotag on a Mesoscale Discovery. Signal obtained in the wells containing blank samples was subtracted from all other wells and IC50's were determined by fitting a sigmoidal curve to % inhibition of control versus Log10 compound concentration.

Test [2] addresses T1, Recombinant Human NF-kappaB-inducing Kinase (NIK/MAP3K14). The experiment in a line: Biological Assay A2: inhibition of auto-phosphorylation of recombinant human NIK/MAP3K14 (AlphaScreen). The format is biochemical. The settings on record: 25 microM ATP, 0.2 nM GST-tagged NIK/MAP3K14, 1 h at 25° C., averaged values, read-out: Alpha-Screen IC50. How it is done: Inhibition of Auto-phosphorylation of Recombinant Human NF-kappaB-inducing Kinase (NIK/MAP3K14) Activity (AlphaScreen®)
NIK/MAP3K14 auto-phosphorylation activity was measured using the AlphaScreen® (αscreen) format (Perkin Elmer). All compounds tested were dissolved in dimethyl sulfoxide (DMSO) and further dilutions were made in assay buffer. Final DMSO concentration was 1% (v/v) in assays. Assay buffer was 50 mM Tris pH 7.5 containing 1 mM EGTA (ethylene glycol tetraacetic acid), 1 mM DTT (dithiothreitol), 0.1 mM Na3VO4, 5 mM MgCl2, 0.01% Tween® 20. Assays were carried out in 384 well Alphaplates (Perkin Elmer). Incubations consisted of compound, 25 microM Adenosine-5′-triphosphate (ATP), and 0.2 nM NIK/MAP3K14. Incubations were initiated by addition of GST-tagged NIK/MAP3K14 enzyme, carried out for 1 h at 25° C. and terminated by addition of stop buffer containing anti-phospho-IKK Ser176/180 antibody. Protein A Acceptor and Glutathione-Donor beads were added before reading using an EnVision® Multilabel Plate Reader (Perkin Elmer). Signal obtained in the wells containing blank samples was subtracted from all other wells and IC50's were determined by fitting a sigmoidal curve to % inhibition of control versus Log10 compound concentration.
Background: Alpha assays give light when donor and acceptor beads are brought close together.

The subject of test [3] is P-IKKα levels in L363 cells. The experiment in a line: Biological Assay B: effect of compounds on P-IKKα levels in L363 cells. The format is cell-based. Conditions: Homo sapiens, L-363; L363 cells with BAFF, 2 hr treatment; averaged values; read-out: IKKα Cellular IC50. On the procedure: Effect of Compounds on P-IKKα Levels in L363 Cells
All compounds tested were dissolved in DMSO and further dilutions were made in culture medium. Final DMSO concentration was 1% (v/v) in cell assays. The human L363 cells (ATCC) were cultured in RPMI 1640 medium supplemented with GlutaMax and 10% fetal calf serum (PAA). Cells were routinely maintained at densities of 0.2×10^6 cells per ml-1×10^6 cells per ml at 37° C. in a humidified 5% CO2 atmosphere. Cells were passaged twice a week splitting back to obtain the low density. Cells were seeded in 96 well plates (Nunc 167008) at 2×10^6 per ml media in a volume of 75 μl per well plus 25 μl 1 μg/ml recombinant human B-cell activating factor (BAFF/BLyS/TNFSF13B). Seeded cells were incubated at 37° C. in a humidified 5% CO2 atmosphere for 24 hr. Drugs and/or solvents were added (20 μl) to a final volume of 120 μl. Following 2 hr treatment plates were removed from the incubator and cell lysis was achieved by the addition of 30 μl 5× lysis buffer followed by shaking on a plate shaker at 4° C. for 10 min. At the end of this incubation lysed cells were centrifuged at 800×g for 20 min at 4° C. and the lysate was assessed for P-IKKα levels by sandwich immuno-assay carried out in anti-rabbit antibody coated Mesoscale plates. Within an experiment, the results for each treatment were the mean of 2 replicate wells. For initial screening purposes, compounds were tested using an 8 point dilution curve (serial 1:3 dilutions). For each experiment, controls (containing MG132 and BAFF but no test drug) and a blank incubation (containing MG132 and BAFF and 10 μM ADS125117, a test concentration known to give full inhibition) were run in parallel. The blank incubation value was subtracted from all control and sample values. To determine the IC50 a sigmoidal curve was fitted to the plot of % inhibition of control P-IKKα levels versus Log10 compound concentration.

The next test concerns JJN-3 cells. The experiment in a line: Biological Assay C: antiproliferative activity on JJN-3 cells (CellTiter-Glo). The format is cell-based. Conditions: Homo sapiens, 72 hr of treatment, averaged values. On the procedure: (§1) Determination of Antiproliferative Activity on LP-1, L-363 and JJN-3 Cells
(§2) All compounds tested were dissolved in DMSO and further dilutions were made in culture medium. Final DMSO concentration was 0.3% (v/v) in cell proliferation assays. Viability was assessed using CellTiter-Glo cell viability assay kit (Promega). The human LP-1, L-363 and JJN-3 cells (DSMZ) were cultured in RPMI 1640 medium supplemented with 2 mM L-glutamine, and 10% fetal calf serum (PAA). Cells were routinely kept as suspension cells at 37° C. in a humidified 5% CO2 atmosphere. Cells were passaged at a seeding density of 0.2×10^6/ml twice a week. Cells were seeded in black tissue culture treated 96-well plates (Perkin Elmer). Densities used for plating ranged from 2,000 to 6,000 cells per well in a total volume of 75 μl medium. After twenty four hours, drugs and/or solvents were added (25 μl) to a final volume of 100 μl. Following 72 hr of treatment plates were removed from the incubator and allowed to equilibrate to room temperature for approx 10 min. 100 μl CellTiter-Glo reagent was added to each well that was then covered (Perkin Elmer Topseal) and shaken on plate shaker for 10 min. Luminescence was measured on a HTS Topcount (Perkin Elmer). Within an experiment, the results for each treatment were the mean of 2 replicate wells. For initial screening purposes, compounds were tested using a 9 point dilution curve (serial 1:3 dilutions). For each experiment, controls (containing no drug) and a blank incubation (containing cells read at the time of compound addition) were run in parallel. The blank value was subtracted from all control and sample values. For each sample, the mean value for cell growth (in relative light units) was expressed as a percentage of the mean value for cell growth of the control.
On the technique in general: Cellular ATP, detected with luciferase, serves as a proxy for viable cell number.

Another test has as its system L-363 cells. The experiment in a line: Biological Assay C: antiproliferative activity on L-363 cells (CellTiter-Glo). The format is cell-based. Conditions: Homo sapiens, 72 hr of treatment, averaged values. How it is done:
as §1, §2

A further test relates to LP-1 cells. The experiment in a line: Biological Assay C: antiproliferative activity on LP-1 cells (CellTiter-Glo). The format is cell-based. The settings on record: Homo sapiens, 72 hr of treatment, averaged values. On the procedure:
as §1, §2

T1 sequence (Q99558 whole entry): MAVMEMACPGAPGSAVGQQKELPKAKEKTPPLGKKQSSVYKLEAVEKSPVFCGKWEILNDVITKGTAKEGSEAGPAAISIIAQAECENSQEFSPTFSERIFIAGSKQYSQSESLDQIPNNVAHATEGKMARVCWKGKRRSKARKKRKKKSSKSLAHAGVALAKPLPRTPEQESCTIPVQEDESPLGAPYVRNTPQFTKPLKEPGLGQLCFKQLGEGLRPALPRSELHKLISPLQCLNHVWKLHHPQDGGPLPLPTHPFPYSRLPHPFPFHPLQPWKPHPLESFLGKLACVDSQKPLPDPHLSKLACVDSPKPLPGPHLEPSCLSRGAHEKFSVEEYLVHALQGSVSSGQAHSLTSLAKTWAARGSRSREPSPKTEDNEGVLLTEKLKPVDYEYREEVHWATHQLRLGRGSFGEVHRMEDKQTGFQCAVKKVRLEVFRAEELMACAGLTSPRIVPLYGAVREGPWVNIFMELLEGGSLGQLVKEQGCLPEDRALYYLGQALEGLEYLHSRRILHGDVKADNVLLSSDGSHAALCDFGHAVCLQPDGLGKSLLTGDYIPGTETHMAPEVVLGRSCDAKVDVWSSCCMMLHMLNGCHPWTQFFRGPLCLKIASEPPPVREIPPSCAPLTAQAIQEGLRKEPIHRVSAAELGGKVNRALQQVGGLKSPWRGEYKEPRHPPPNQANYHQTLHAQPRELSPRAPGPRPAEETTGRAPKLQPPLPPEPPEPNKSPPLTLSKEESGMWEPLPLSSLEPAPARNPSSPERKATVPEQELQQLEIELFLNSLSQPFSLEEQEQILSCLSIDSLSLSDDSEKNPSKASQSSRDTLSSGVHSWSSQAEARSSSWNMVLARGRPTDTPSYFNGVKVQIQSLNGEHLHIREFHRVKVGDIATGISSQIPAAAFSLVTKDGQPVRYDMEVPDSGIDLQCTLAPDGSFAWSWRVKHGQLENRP

Broadly, the IC50 is the midpoint of a concentration-inhibition curve. In general, EC50 refers to the concentration at which the effect is half-maximal. A higher EC50 goes with a need for much substance. On to `Cn1cc(-c2cn[nH]c2)c2cc(C#CC3(O)CCCC3)ncc21` [Compound 8], for which the IC50 was determined as 21 nM in test [1], 7 nM in test [2] and 406 nM in test [3]. Further, the EC50 with JJN-3 cells was determined as 3330 nM; in the test on L-363 cells, 5860 nM; in the test on LP-1 cells, 9540 nM.
On to `CC(C)(O)C#Cc1cc2c(-c3cn[nH]c3)cn(S(C)(=O)=O)c2cn1` [Compound 25], for which the results for the half-maximal inhibitory concentration (IC50) in test [1], in test [2] and in test [3] were 14 nM, 55 nM and 460 nM, respectively. The EC50 with JJN-3 cells turned out to be 1900 nM; with L-363 cells, 2260 nM; with LP-1 cells, 4980 nM.
With `CCn1cc(-c2c[nH]nc2C#N)c2cc(C#CC(C)(C)O)ncc21` [Compound 31], the IC50 in test [1] turned out to be 9 nM; in test [2] it was 35 nM; in test [3] it was 214 nM. Besides, the values for the EC50 with JJN-3 cells, in the test on L-363 cells and in the test on LP-1 cells were 2380 nM, 3940 nM and 4900 nM, respectively.
With `CC(C)Cn1cc(-c2cn[nH]c2)c2cc(C#CC(C)(C)O)ncc21` [Compound 21], the IC50 was 55 nM in test [1], 25 nM in test [2] and 119 nM in test [3]. The EC50 is 629 nM with JJN-3 cells, 427 nM in the test with L-363 cells and 1120 nM in the test with LP-1 cells.
As to `CC(C)(O)C#Cc1cc2c(-c3cn[nH]c3)cn(CCC(C)(C)O)c2cn1` [Compound 20], the IC50 in test [1] worked out at 29 nM; in test [2] it was 30 nM; in test [3] it was 187 nM. The figures for the EC50 with JJN-3 cells, with L-363 cells and in the test with LP-1 cells were 2650 nM, 2260 nM and greater than 30000 nM, respectively.
For the compound `CC(C)(O)Cn1cc(-c2cn[nH]c2)c2cc(C#CC(C)(O)c3nccs3)ncc21` (stereo not drawn) [Compound 15], the values for the 50% inhibitory concentration (IC50) in test [1], in test [2] and in test [3] were 10 nM, 43 nM and 47 nM, respectively. The figures for the half-maximal effective concentration (EC50) in the test on JJN-3 cells, with L-363 cells and with LP-1 cells were 3850 nM, greater than 30000 nM and greater than 30000 nM, respectively.
With `CC(C)(O)C#Cc1cc2c(-c3cn[nH]c3)cn(CC3CCOC3)c2cn1` (stereo not drawn) [Compound 2], the IC50 is 129 nM in test [1], 83 nM in test [2] and 829 nM in test [3]. The EC50 amounted to 3950 nM with JJN-3 cells, 4340 nM in the test on L-363 cells and 21300 nM with LP-1 cells.
Take `CCCC(C)n1cc(-c2cn[nH]c2)c2cc(C#CC(C)(C)O)ncc21` (stereo not drawn) [Compound 23]: the figures for the IC50 in test [1], in test [2] and in test [3] were 57 nM, 43 nM and 302 nM, respectively. Besides, the results for the EC50 in the test with JJN-3 cells, in the test on L-363 cells and in the test on LP-1 cells were 848 nM, 625 nM and 1080 nM, respectively.
As for `CC(C)(O)C#Cc1cc2c(-c3c[nH]nc3C#N)cn(CC(C)(C)O)c2cn1` [Compound 32], the concentration for half-maximal inhibition (IC50) is 68 nM in test [1], 44 nM in test [2] and 1010 nM in test [3]. Further, the results for the EC50 in the test with JJN-3 cells, with L-363 cells and in the test on LP-1 cells were 5670 nM, 22600 nM and greater than 30000 nM, respectively.
Consider `CC(O)(C#Cc1cc2c(-c3cn[nH]c3)c[nH]c2cn1)c1nccs1` (stereo not drawn) [Compound 7], for which the IC50 came out at 9 nM in test [1], 9 nM in test [2] and 882 nM in test [3]. Moreover, the EC50 with JJN-3 cells was greater than 30000 nM; in the test with L-363 cells, 5390 nM; with LP-1 cells, greater than 30000 nM.
